Reference: ChEMBL document CHEMBL5233255, “Natural and nature-inspired stilbenoids as antiviral agents” (Eur J Med Chem, 2020)
Values after ≈ are worked out from the molar mass of the structure shown.

Columns and labels:
[1] = Cytotoxicity against HEK293T cells; assay type: toxicity, cell-based, HEK-293T; settings: human, read-out: TC50 (the source's name)
[2] = system: Human immunodeficiency virus 1; experiment: Antiviral activity against HIV-1 infected in HEK293T cells; assay type: functional, organism-based; settings: Human immunodeficiency virus 1, HEK-293T
[3] = Cytotoxicity against human A549 cells assessed as reduction in cell viability by Alamar blue assay; assay type: toxicity, cell-based
Influenza A virus [4] = experiment: Antiviral activity against influenza A virus A/PR/8/34 (H1N1) infected in human A549 cells assessed as inhibition of RANTES production incubated for 48 hrs by ELISA; assay type: functional, organism-based; settings: A549, 48 h
[5] = Inhibition of HIV-1 integrase catalysed 3' processing activity by densitometric analysis; design: species or system Human immunodeficiency virus 1
[6] = Inhibition of recombinant HIV-1 integrase catalysed strand transfer activity measured after 60 mins by electrochemiluminescent plate-based assay; design: species or system Human immunodeficiency virus 1
Human alphaherpesvirus 1 [7] = experiment: Antiviral activity against HSV-1 15577 infected in African green monkey Vero cells incubated for 3 days by plaque reduction assay; assay type: functional, organism-based; settings: Human alphaherpesvirus 1, 15577, Vero, 72 h
Human alphaherpesvirus 1 [8] = experiment: Antiviral activity against HSV-1 clinical isolate infected in African green monkey Vero cells incubated for 3 days by plaque reduction assay; assay type: functional, organism-based; settings: Human alphaherpesvirus 1, Vero, 72 h
Human alphaherpesvirus 2 = experiment: Antiviral activity against HSV-2 333 infected in African green monkey Vero cells incubated for 3 days by plaque reduction assay; assay type: functional, organism-based; settings: Human alphaherpesvirus 2, 333, Vero, 72 h
[9] = Cytotoxicity against human C8166 cells assessed as inhibition of cell growth by MTT assay; assay type: toxicity, cell-based
[10] = system: Human immunodeficiency virus 1; experiment: Antiviral activity against HIV-1 infected in human C8166 cells assessed as inhibition of viral replication; assay type: functional, organism-based; settings: Human immunodeficiency virus 1, C8166
[11] = Therapeutic index, ratio of CC50 for cytotoxicity against human C8166 cells to EC50 for antiviral activity against HIV-1 infected in C8166 cells; assay type: toxicity, cell-based; settings: read-out: Ratio CC50/EC50
[12] = system: Human immunodeficiency virus 1; experiment: Antiviral activity against VSV pseudo-typed HIV-1 infected in human MT4 cells expressing eGFP under control of HIV-1 LTR promoter sequence; assay type: functional, organism-based; settings: Human immunodeficiency virus 1, MT4
[13] = Cytotoxicity against human MT4 cells expressing eGFP under control of HIV-1 LTR promoter sequence; assay type: toxicity, cell-based
[14] = Selectivity index, ratio of CC50 for cytotoxicity against human MT4 cells expressing eGFP under control of HIV-1 LTR promoter sequence to EC50 for antiviral activity against HIV-1 infected in human MT4 cells expressing eGFP under control of HIV-1 LTR promoter sequence; assay type: toxicity, cell-based; settings: read-out: Ratio CC50/EC50
[15] = Cytotoxicity against HCV RNA-transfected human Huh7.5 cells assessed as reduction in cell viability; assay type: toxicity, cell-based, Huh-7.5; settings: HCV RNA-transfected Huh7.5 cells
Hepatitis C virus [16] = experiment: Antiviral activity against Hepatitis C virus genotype 2 infected in renilla luciferase-J6/JFH1 RNA-transfected human Huh7.5 cells assessed as reduction in viral replication incubated for 72 hrs by qRT-PCR analysis; assay type: functional, organism-based, Hepacivirus hominis; settings: genotype 2, Huh7.5, 72 h
Hepatitis C virus [17] = experiment: Antiviral activity against Hepatitis C virus genotype 1 infected in Bart79I RNA-transfected human Huh7.5 cells assessed as reduction in viral replication incubated for 24 to 72 hrs by RT-PCR assay; assay type: functional, organism-based, Hepacivirus hominis; settings: genotype 1, Huh7.5
Hepatitis C virus [18] = experiment: Antiviral activity against Hepatitis C virus genotype 2 infected in human Huh7.5 cells assessed as reduction in viral replication by RT-PCR assay; assay type: functional, organism-based, Hepacivirus hominis; settings: genotype 2, Huh7.5
Influenza A virus [19] = experiment: Antiviral activity against influenza A virus A/Guangdong/243/72 ([…]) infected in MDCK cells assessed as inhibition of virus-induced cytopathic effect; assay type: functional, organism-based

With `Oc1ccc(-c2sc3ccccc3c2-c2cc(O)cc(O)c2)cc1` the CC50 [1] was 118 µM and the EC50 [2] was 45.1 µM.

`Oc1ccc(/C=C/c2cc(O)cc3c2[C@@H](c2cc(O)cc4c2[C@H](c2cc(O)cc5c2[C@@H](c2cc(O)cc(O)c2)[C@H](c2ccc(O)cc2)O5)[C@@H](c2ccc(O)cc2)O4)[C@H](c2ccc(O)cc2)O3)cc1` gave a CC50 [3] of 8.4 µM.

With `Oc1ccc(-c2c(-c3cc(O)cc(O)c3)oc3ccccc23)cc1` the CC50 [1] was 84.8 µM and the EC50 [2] was 35 µM.

With `O=Cc1ccc2c(c1)C(c1cc(O)cc3c1[C@H](c1cc(O)cc(O)c1)[C@@H](c1ccc(O)cc1)O3)[C@H](c1ccc(O)cc1)O2` (some centres not stated) the EC50 (Influenza A virus [4]) was 8.48 µM and the CC50 [3] was over 400 µM.

Compound `Nc1ccc(/C=C/c2ccc(N)cc2S(=O)(=O)O)c(S(=O)(=O)O)c1` has an IC50 [5] of over 111 µM and an IC50 [6] of over 111 µM.

For `Oc1cc(O)cc(-c2ccc3cc(O)ccc3c2)c1`, the EC50 [2] was over 75 µM.

In the case of `O=C(/C=C/c1ccc(O)cc1)c1cc(O)cc(O)c1`, the EC50 [2] is reported as over 75 µM.

`Oc1ccc(-n2cc(-c3cc(O)cc(O)c3)nn2)cc1` showed an EC50 [2] of over 75 µM.

For `CC(C)=CCc1c(O)cc(-c2cc3ccc(O)cc3o2)cc1O` [MORACIN C], the IC50 (Human alphaherpesvirus 1 [7]) was 2.5 µg/mL (≈ 8.06 µM), the IC50 (Human alphaherpesvirus 1 [8]) was 2.5 µg/mL (≈ 8.06 µM) and the IC50 (Human alphaherpesvirus 2) was 2.5 µg/mL (≈ 8.06 µM).

`OC[C@H]1O[C@@H](Oc2cc(O)cc(/C=C/c3ccc(O)cc3)c2O[C@@H]2O[C@H](CO)[C@@H](O)[C@H](O)[C@H]2O)[C@H](O)[C@@H](O)[C@@H]1O` showed a CC50 [9] of over 200 µg/mL, an EC50 [10] of 176 µg/mL (≈ 310 µM) and a selectivity ratio [11] of over 1.13.

Work on `O=S(=O)(O)c1cc(/N=N/c2cc(S(=O)(=O)O)c3ccccc3c2O)ccc1/C=C/c1ccc(/N=N/c2cc(S(=O)(=O)O)c3ccccc3c2O)cc1S(=O)(=O)O` yielded an IC50 [5] of 0.32 µM, an IC50 [6] of 0.18 µM and an EC50 [12] of 3.07 µM. It also gave a CC50 [13] of 59 µM and a selectivity ratio [14] of 19.2.

With `Oc1cc(O)cc(-c2ccc3cnccc3c2)c1` the EC50 [2] was over 75 µM.

In the case of `CC(=O)Oc1ccc(/C=C/c2cc(OC(C)=O)cc3c2C(c2cc(OC(C)=O)cc(OC(C)=O)c2)C(c2ccc(OC(C)=O)cc2)O3)cc1` (configuration not stated), the CC50 [15] is reported as over 10 µM, the EC50 (Hepatitis C virus [16]) is reported as 2.37 µM and the EC50 (Hepatitis C virus [17]) is reported as 10.4 µM. For the same compound, the EC50 (Hepatitis C virus [18]) was 4.7 µM.

In the case of `Oc1ccc(-c2c(-c3cc(O)cc(O)c3)sc3ccccc23)cc1`, the CC50 [1] is reported as 131 µM and the EC50 [2] is reported as 34.4 µM.

`CCOc1ccc(/N=N/c2ccc(/C=C/c3ccc(/N=N/c4ccc(OCC)cc4)cc3S(=O)(=O)O)c(S(=O)(=O)O)c2)cc1` showed an IC50 [5] of 1.1 µM, an IC50 [6] of 0.5 µM and an EC50 [12] of 0.6 µM. The CC50 [13] was over 100 µM and the selectivity ratio [14] was over 166.

In the case of `NC(=O)c1ncn([C@@H]2O[C@H](CO)[C@@H](O)[C@H]2O)n1` [RIBAVIRIN], the IC50 (Influenza A virus [19]) is reported as 5.54 µg/mL (≈ 22.7 µM).

Compound `CC1=C[C@@H](c2c(O)cc(-c3cc4ccc(O)cc4o3)cc2O)[C@@H](C(=O)c2ccc(O)cc2O)[C@H](c2ccc(O)cc2O)C1` [MULBERROFURAN C] has an IC50 (Human alphaherpesvirus 1 [7]) of 2.5 µg/mL (≈ 4.31 µM), an IC50 (Human alphaherpesvirus 1 [8]) of 2.5 µg/mL (≈ 4.31 µM) and an IC50 (Human alphaherpesvirus 2) of 2.5 µg/mL (≈ 4.31 µM).

`O=S(=O)([O-])OC[C@H]1O[C@@H](Oc2cc(O)cc(/C=C/c3ccc(O)cc3)c2)[C@H](O)[C@@H](O)[C@@H]1O.[Na+]` gave a CC50 [9] of 746 µg/mL, an EC50 [10] of over 200 µg/mL and a selectivity ratio [11] of under 3.73.

In the case of `Oc1ccc(-c2ncc(-c3cc(O)cc(O)c3)cn2)cc1`, the EC50 [2] is reported as over 75 µM.

Compound `O=S(=O)([O-])O[C@H]1[C@H](O)[C@@H](O)[C@H](Oc2cc(O)cc(/C=C\c3ccc(O)cc3)c2)O[C@@H]1CO.[Na+]` has a CC50 [9] of 98.8 µg/mL, an EC50 [10] of 84.8 µg/mL and a selectivity ratio [11] of 1.17.

Work on `O=[N+]([O-])c1ccc(/C=C/c2ccc([N+](=O)[O-])cc2S(=O)(=O)O)c(S(=O)(=O)O)c1` yielded an IC50 [5] of over 111 µM and an IC50 [6] of over 111 µM.

`Oc1ccc(/C=C/c2cc(O)cc3c2C(c2cc(O)cc(O)c2)C(c2ccc(O)cc2)O3)cc1` (racemic) showed a CC50 [15] of over 10 µM, an EC50 (Hepatitis C virus [16]) of 0.2 µM and an EC50 (Hepatitis C virus [17]) of 1.7 µM. It also gave an EC50 (Hepatitis C virus [18]) of 9.3 µM.
